Test results published in ChEMBL document CHEMBL1201862, “PubChem BioAssay data set” (2004).
Counter-ions that a name gives are not always drawn.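 Assay format: 96-well plates, 48-hour exposure. GI50: concentration for 50% inhibition of growth.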 Calls of active or inactive are those of the source. No stated cut-off is given here; in the data, active = GI50 up to about 1.1 µM and inactive = higher.

How the values were obtained:
Assay in all cases: NCI anticancer screen, dose series, 48 h
786-0 = tested on: 786-0
A498 = tested on: A498
A549 = tested on: A549
ACHN = tested on: ACHN
BT-549 = tested on: BT-549
CAKI-1 = tested on: CAKI-1
CCRF-CEM = tested on: CCRF-CEM
COLO 205 = tested on: COLO 205
DU-145 = tested on: DU-145
EKVX = tested on: EKVX
HCC 2998 = tested on: HCC 2998
HCT-116 = tested on: HCT-116
HCT-15 = tested on: HCT-15
HL-60 = tested on: HL-60
HOP-62 = tested on: HOP-62
HOP-92 = tested on: HOP-92
HT-29 = tested on: HT-29
Hs-578T = tested on: Hs-578T
IGROV-1 = tested on: IGROV-1
K562 = tested on: K562
KM12 = tested on: KM12
LOX IMVI = tested on: LOX IMVI
M14 = tested on: M14
MCF7 = tested on: MCF7
MDA-MB-231 = tested on: MDA-MB-231
MDA-MB-435 = tested on: MDA-MB-435
MDA-N = tested on: MDA-N
MOLT-4 = tested on: MOLT-4
Malme-3M = tested on: Malme-3M
NCI-H226 = tested on: NCI-H226
NCI-H23 = tested on: NCI-H23
NCI-H460 = tested on: NCI-H460
NCI-H522 = tested on: NCI-H522
NCI/ADR-RES = tested on: NCI/ADR-RES
OVCAR-3 = tested on: OVCAR-3
OVCAR-4 = tested on: OVCAR-4
OVCAR-5 = tested on: OVCAR-5
OVCAR-8 = tested on: OVCAR-8
PC-3 = tested on: PC-3
RPMI-8226 = tested on: RPMI-8226
RXF 393 = tested on: RXF 393
SF-268 = tested on: SF-268
SF-295 = tested on: SF-295
SF-539 = tested on: SF-539
SK-MEL-28 = tested on: SK-MEL-28
SK-MEL-2 = tested on: SK-MEL-2
SK-MEL-5 = tested on: SK-MEL-5
SK-OV-3 = tested on: SK-OV-3
SN12C = tested on: SN12C
SNB-19 = tested on: SNB-19
SNB-75 = tested on: SNB-75
SW-620 = tested on: SW-620
T47D = tested on: T47D
TK-10 = tested on: TK-10
U-251 = tested on: U-251
UACC-257 = tested on: UACC-257
UACC-62 = tested on: UACC-62
UO-31 = tested on: UO-31

OC(CNc1ccccn1)c1ccccc1 (stereo unspecified) [PHENYRAMIDOL HYDROCHLORIDE]
GI50 (786-0): > 100 µM (inactive)
GI50 (A498): > 100 µM (inactive)
GI50 (A549): > 100 µM (inactive)
GI50 (ACHN): > 100 µM (inactive)
GI50 (BT-549): > 100 µM (inactive)
GI50 (CAKI-1): > 100 µM (inactive)
GI50 (CCRF-CEM): > 100 µM (inactive)
GI50 (COLO 205): > 100 µM (inactive)
GI50 (DU-145): > 100 µM (inactive)
GI50 (EKVX): > 100 µM (inactive)
GI50 (HCC 2998): > 100 µM (inactive)
GI50 (HCT-116): > 100 µM (inactive)
GI50 (HCT-15): > 100 µM
GI50 (HL-60): > 100 µM (inactive)
GI50 (HOP-62): > 100 µM (inactive)
GI50 (HOP-92): > 100 µM (inactive)
GI50 (HT-29): > 100 µM (inactive)
GI50 (Hs-578T): > 100 µM (inactive)
GI50 (IGROV-1): > 100 µM (inactive)
GI50 (K562): 85.5 µM (inactive)
GI50 (KM12): > 100 µM (inactive)
GI50 (LOX IMVI): > 100 µM (inactive)
GI50 (M14): > 100 µM (inactive)
GI50 (MCF7): > 100 µM (inactive)
GI50 (MDA-MB-231): > 100 µM (inactive)
GI50 (MDA-MB-435): > 100 µM (inactive)
GI50 (MDA-N): > 100 µM (inactive)
GI50 (MOLT-4): > 100 µM (inactive)
GI50 (Malme-3M): > 100 µM (inactive)
GI50 (NCI-H226): > 100 µM (inactive)
GI50 (NCI-H23): > 100 µM (inactive)
GI50 (NCI-H460): > 100 µM (inactive)
GI50 (NCI-H522): > 100 µM (inactive)
GI50 (NCI/ADR-RES): > 100 µM (inactive)
GI50 (OVCAR-3): > 100 µM (inactive)
GI50 (OVCAR-4): > 100 µM (inactive)
GI50 (OVCAR-5): > 100 µM (inactive)
GI50 (OVCAR-8): > 100 µM (inactive)
GI50 (PC-3): > 100 µM (inactive)
GI50 (RPMI-8226): 90.2 µM (inactive)
GI50 (RXF 393): > 100 µM (inactive)
GI50 (SF-268): > 100 µM (inactive)
GI50 (SF-295): > 100 µM (inactive)
GI50 (SF-539): > 100 µM (inactive)
GI50 (SK-MEL-28): > 100 µM (inactive)
GI50 (SK-MEL-2): > 100 µM (inactive)
GI50 (SK-MEL-5): > 100 µM (inactive)
GI50 (SK-OV-3): > 100 µM (inactive)
GI50 (SN12C): 63.1 µM (inactive)
GI50 (SNB-19): > 100 µM (inactive)
GI50 (SNB-75): > 100 µM (inactive)
GI50 (SW-620): > 100 µM (inactive)
GI50 (T47D): > 100 µM (inactive)
GI50 (TK-10): > 100 µM (inactive)
GI50 (U-251): 67.6 µM (inactive)
GI50 (UACC-257): > 100 µM (inactive)
GI50 (UACC-62): > 100 µM (inactive)
GI50 (UO-31): > 100 µM (inactive)

COc1ccc(C(F)(F)F)cc1NC(=O)O/N=C(/Cl)C(C)C
GI50 (786-0): 16.9 µM (inactive)
GI50 (A498): 28.9 µM (inactive)
GI50 (A549): 20.8 µM (inactive)
GI50 (ACHN): 10.5 µM (inactive)
GI50 (BT-549): 20.7 µM (inactive)
GI50 (CAKI-1): 1.77 µM (inactive)
GI50 (CCRF-CEM): 2.24 µM (inactive)
GI50 (COLO 205): 2.03 µM (inactive)
GI50 (DU-145): 19.2 µM (inactive)
GI50 (EKVX): 17.7 µM (inactive)
GI50 (HCC 2998): 19.9 µM (inactive)
GI50 (HCT-116): 16.4 µM (inactive)
GI50 (HCT-15): 5.18 µM
GI50 (HL-60): 2.76 µM (inactive)
GI50 (HOP-62): 21.6 µM (inactive)
GI50 (HOP-92): 7.33 µM (inactive)
GI50 (HT-29): 23.9 µM (inactive)
GI50 (Hs-578T): 30.4 µM (inactive)
GI50 (IGROV-1): 17.9 µM (inactive)
GI50 (K562): 1.91 µM (inactive)
GI50 (KM12): 26.3 µM (inactive)
GI50 (LOX IMVI): 5.27 µM (inactive)
GI50 (M14): 16.9 µM (inactive)
GI50 (MCF7): 21.2 µM (inactive)
GI50 (MDA-MB-231): 19.4 µM (inactive)
GI50 (MDA-MB-435): 20.8 µM (inactive)
GI50 (MDA-N): 16.3 µM (inactive)
GI50 (MOLT-4): 2.05 µM (inactive)
GI50 (Malme-3M): 9.62 µM (inactive)
GI50 (NCI-H226): 17.7 µM (inactive)
GI50 (NCI-H23): 19.7 µM (inactive)
GI50 (NCI-H460): 37.6 µM (inactive)
GI50 (NCI-H522): 2.26 µM (inactive)
GI50 (NCI/ADR-RES): 23.6 µM (inactive)
GI50 (OVCAR-3): 19.3 µM (inactive)
GI50 (OVCAR-4): 19.1 µM (inactive)
GI50 (OVCAR-5): 20.6 µM (inactive)
GI50 (OVCAR-8): 21.9 µM (inactive)
GI50 (PC-3): 18.8 µM (inactive)
GI50 (RPMI-8226): 1.71 µM (inactive)
GI50 (RXF 393): 19.6 µM (inactive)
GI50 (SF-268): 23.8 µM (inactive)
GI50 (SF-295): > 47.1 µM (inactive)
GI50 (SF-539): 18.3 µM (inactive)
GI50 (SK-MEL-28): 21.4 µM (inactive)
GI50 (SK-MEL-2): 18.8 µM (inactive)
GI50 (SK-MEL-5): 10.7 µM (inactive)
GI50 (SK-OV-3): > 47.5 µM (inactive)
GI50 (SN12C): 16.2 µM (inactive)
GI50 (SNB-19): 18.7 µM (inactive)
GI50 (SNB-75): 16.8 µM (inactive)
GI50 (SW-620): 3.33 µM (inactive)
GI50 (T47D): 20 µM (inactive)
GI50 (TK-10): 15.1 µM (inactive)
GI50 (U-251): 26.4 µM (inactive)
GI50 (UACC-257): 19.7 µM (inactive)
GI50 (UACC-62): 18.5 µM (inactive)
GI50 (UO-31): 18.5 µM (inactive)
